Assay results reported in ChEMBL document CHEMBL5584201, “Amphiphilic tribasic galactosamines potentiate rifampicin in Gram-negative bacteria at low Mg++/Ca++concentrations” (Bioorg Med Chem Lett, 2024).
Converted amounts (≈) assume the structure as drawn.

Key:
Pseudomonas aeruginosa [1] = test: Antibacterial activity against Pseudomonas aeruginosa PAO1 in low salt containing media by Mueller-Hinton broth based assay; format: functional
Acinetobacter baumannii [2] = test: Antibacterial activity against Acinetobacter baumannii ATCC 17978 in low salt containing media by Mueller-Hinton broth based assay; format: functional
Escherichia coli [3] = test: Antibacterial activity against Escherichia coli ATCC 25922 in low salt containing media by Mueller-Hinton broth based assay; format: functional
Pseudomonas aeruginosa [4] = test: Potentiation of rifampicin-induced antibacterial activity against Pseudomonas aeruginosa PAO1 assessed as rifampicin MIC in low salt containing media by Mueller-Hinton broth based assay; format: functional
Acinetobacter baumannii [5] = test: Potentiation of rifampicin-induced antibacterial activity against Acinetobacter baumannii ATCC 17978 assessed as rifampicin MIC in low salt containing media by Mueller-Hinton broth based assay; format: functional
Escherichia coli [6] = test: Potentiation of rifampicin-induced antibacterial activity against Escherichia coli ATCC 25922 assessed as rifampicin MIC in low salt containing media by Mueller-Hinton broth based assay; format: functional
Pseudomonas aeruginosa [7] = test: Potentiation of rifampicin-induced antibacterial activity against Pseudomonas aeruginosa PAO1 assessed as fold change in rifampicin MIC in low salt containing media by Mueller-Hinton broth based assay; format: functional
Acinetobacter baumannii [8] = test: Potentiation of rifampicin-induced antibacterial activity against Acinetobacter baumannii ATCC 17978 assessed as fold change in rifampicin MIC in low salt containing media by Mueller-Hinton broth based assay; format: functional
Escherichia coli [9] = test: Potentiation of rifampicin-induced antibacterial activity against Escherichia coli ATCC 25922 assessed as fold change in rifampicin MIC in low salt containing media by Mueller-Hinton broth based assay; format: functional
Acinetobacter baumannii [10] = test: Antibacterial activity against Acinetobacter baumannii ATCC 17978 in high concentration of Ca++ and Mg++ containing media by Mueller-Hinton broth based assay; format: functional
Acinetobacter baumannii [11] = test: Antibacterial activity against Acinetobacter baumannii 92247 in high concentration of Ca++ and Mg++ containing media by Mueller-Hinton broth based assay; format: functional
Escherichia coli [12] = test: Antibacterial activity against Escherichia coli ATCC 25922 in high concentration of Ca++ and Mg++ containing media by Mueller-Hinton broth based assay; format: functional
Escherichia coli [13] = test: Antibacterial activity against Escherichia coli […] in high concentration of Ca++ and Mg++ containing media by Mueller-Hinton broth based assay; format: functional
Acinetobacter baumannii [14] = test: Potentiation of rifampicin-induced antibacterial activity against Acinetobacter baumannii ATCC 17978 assessed as rifampicin MIC at 2 to 8 microg/ml in high concentration of Ca++ and Mg++ containing media by Mueller-Hinton broth based assay; format: functional; details: dose 2-8 µg/ml
Acinetobacter baumannii [15] = test: Potentiation of rifampicin-induced antibacterial activity against Acinetobacter baumannii 92247 assessed as rifampicin MIC at 2 to 8 microg/ml in high concentration of Ca++ and Mg++ containing media by Mueller-Hinton broth based assay; format: functional; details: dose 2-8 µg/ml
Escherichia coli [16] = test: Potentiation of rifampicin-induced antibacterial activity against Escherichia coli ATCC 25922 assessed as rifampicin MIC at 2 to 8 microg/ml in high concentration of Ca++ and Mg++ containing media by Mueller-Hinton broth based assay; format: functional; details: dose 2-8 µg/ml
Escherichia coli [17] = test: Potentiation of rifampicin-induced antibacterial activity against Escherichia coli […] assessed as rifampicin MIC at 2 to 8 microg/ml in high concentration of Ca++ and Mg++ containing media by Mueller-Hinton broth based assay; format: functional; details: dose 2-8 µg/ml
Acinetobacter baumannii [18] = test: Potentiation of rifampicin-induced antibacterial activity against Acinetobacter baumannii ATCC 17978 assessed as fold change in rifampicin MIC at 2 to 8 microg/ml in high concentration of Ca++ and Mg++ containing media by Mueller-Hinton broth based assay; format: functional; details: dose 2-8 µg/ml
Acinetobacter baumannii [19] = test: Potentiation of rifampicin-induced antibacterial activity against Acinetobacter baumannii 92247 assessed as fold change in rifampicin MIC at 2 to 8 microg/ml in high concentration of Ca++ and Mg++ containing media by Mueller-Hinton broth based assay; format: functional; details: dose 2-8 µg/ml
Escherichia coli [20] = test: Potentiation of rifampicin-induced antibacterial activity against Escherichia coli ATCC 25922 assessed as fold change in rifampicin MIC at 2 to 8 microg/ml in high concentration of Ca++ and Mg++ containing media by Mueller-Hinton broth based assay; format: functional; details: dose 2-8 µg/ml
Escherichia coli [21] = test: Potentiation of rifampicin-induced antibacterial activity against Escherichia coli […] assessed as fold change in rifampicin MIC at 2 to 8 microg/ml in high concentration of Ca++ and Mg++ containing media by Mueller-Hinton broth based assay; format: functional; details: dose 2-8 µg/ml
Acinetobacter baumannii [22] = test: Potentiation of rifampicin-induced antibacterial activity against Acinetobacter baumannii ATCC 17978 assessed as rifampicin MIC at 16 microg/ml in high concentration of Ca++ and Mg++ containing media by Mueller-Hinton broth based assay; format: functional; details: dose 16 µg/ml
Acinetobacter baumannii [23] = test: Potentiation of rifampicin-induced antibacterial activity against Acinetobacter baumannii 92247 assessed as rifampicin MIC at 16 microg/ml in high concentration of Ca++ and Mg++ containing media by Mueller-Hinton broth based assay; format: functional; details: dose 16 µg/ml
Escherichia coli [24] = test: Potentiation of rifampicin-induced antibacterial activity against Escherichia coli ATCC 25922 assessed as rifampicin MIC at 16 microg/ml in high concentration of Ca++ and Mg++ containing media by Mueller-Hinton broth based assay; format: functional; details: dose 16 µg/ml
Escherichia coli [25] = test: Potentiation of rifampicin-induced antibacterial activity against Escherichia coli […] assessed as rifampicin MIC at 16 microg/ml in high concentration of Ca++ and Mg++ containing media by Mueller-Hinton broth based assay; format: functional; details: dose 16 µg/ml
Acinetobacter baumannii [26] = test: Potentiation of rifampicin-induced antibacterial activity against Acinetobacter baumannii ATCC 17978 assessed as fold change in rifampicin MIC at 16 microg/ml in high concentration of Ca++ and Mg++ containing media by Mueller-Hinton broth based assay; format: functional; details: dose 16 µg/ml
Acinetobacter baumannii [27] = test: Potentiation of rifampicin-induced antibacterial activity against Acinetobacter baumannii 92247 assessed as fold change in rifampicin MIC at 16 microg/ml in high concentration of Ca++ and Mg++ containing media by Mueller-Hinton broth based assay; format: functional; details: dose 16 µg/ml
Escherichia coli [28] = test: Potentiation of rifampicin-induced antibacterial activity against Escherichia coli ATCC 25922 assessed as fold change in rifampicin MIC at 16 microg/ml in high concentration of Ca++ and Mg++ containing media by Mueller-Hinton broth based assay; format: functional; details: dose 16 µg/ml
Escherichia coli [29] = test: Potentiation of rifampicin-induced antibacterial activity against Escherichia coli […] assessed as fold change in rifampicin MIC at 16 microg/ml in high concentration of Ca++ and Mg++ containing media by Mueller-Hinton broth based assay; format: functional; details: dose 16 µg/ml
[30] = Cytotoxicity against HEK293 cells assessed as cell viability at 9 uM relative to control; format: toxicity, cell-based; details: human, read-out: Activity
[31] = Cytotoxicity against human HepG2 cells assessed as cell viability at 9 uM relative to control; format: toxicity, cell-based; details: read-out: Activity

## CCCCCCCCO[C@@H]1O[C@H](CO)[C@H](N)[C@H](OCc2ccc3ccccc3c2)[C@H]1N
Pseudomonas aeruginosa [1]
  MIC: > 128 µg/mL
Acinetobacter baumannii [2]
  MIC: 32 µg/mL
Escherichia coli [3]
  MIC: 32 µg/mL
Pseudomonas aeruginosa [4]
  MIC: 16 µg/mL
Acinetobacter baumannii [5]
  MIC: 8 µg/mL
Escherichia coli [6]
  MIC: 8 µg/mL
Pseudomonas aeruginosa [7]
  fold change (FC): 1
Acinetobacter baumannii [8]
  fold change (FC): 2
Escherichia coli [9]
  fold change (FC): 2

## CCCCCCCCO[C@@H]1O[C@H](CN)[C@H](N)[C@H](OCc2ccc3cccnc3c2)[C@H]1N
Pseudomonas aeruginosa [1]
  MIC: > 128 µg/mL
Acinetobacter baumannii [2]
  MIC: 128 µg/mL
Escherichia coli [3]
  MIC: 64 µg/mL
Pseudomonas aeruginosa [4]
  MIC: 8 µg/mL
Acinetobacter baumannii [5]
  MIC: 8 µg/mL
Escherichia coli [6]
  MIC: 8 µg/mL
Pseudomonas aeruginosa [7]
  fold change (FC): 2
Acinetobacter baumannii [8]
  fold change (FC): 64
Escherichia coli [9]
  fold change (FC): 32

## NC[C@H]1O[C@@H](OCCCc2ccccc2)[C@H](N)[C@@H](OCc2ccc3ccccc3c2)[C@H]1N
Pseudomonas aeruginosa [1]
  MIC: > 128 µg/mL
Acinetobacter baumannii [2]
  MIC: 128 µg/mL
Escherichia coli [3]
  MIC: 64 µg/mL
Pseudomonas aeruginosa [4]
  MIC: 16 µg/mL
Acinetobacter baumannii [5]
  MIC: 16 µg/mL
Escherichia coli [6]
  MIC: 16 µg/mL
Pseudomonas aeruginosa [7]
  fold change (FC): 2
Acinetobacter baumannii [8]
  fold change (FC): 32
Escherichia coli [9]
  fold change (FC): 32

## CCCCCCCCO[C@@H]1O[C@H](CN)[C@H](N)[C@H](OCc2ccccc2)[C@H]1N
Pseudomonas aeruginosa [1]
  MIC: > 128 µg/mL
Acinetobacter baumannii [2]
  MIC: > 128 µg/mL
Escherichia coli [3]
  MIC: 64 µg/mL
Pseudomonas aeruginosa [4]
  MIC: 16 µg/mL
Acinetobacter baumannii [5]
  MIC: 16 µg/mL
Escherichia coli [6]
  MIC: 16 µg/mL
Pseudomonas aeruginosa [7]
  fold change (FC): 1
Acinetobacter baumannii [8]
  fold change (FC): 16
Escherichia coli [9]
  fold change (FC): 16

## CCCCCCCCO[C@H]1[C@@H](N)[C@@H](CN=[N+]=[N-])O[C@@H](OCc2ccc3ccccc3c2)[C@@H]1N
Pseudomonas aeruginosa [1]
  MIC: 32 µg/mL
Acinetobacter baumannii [2]
  MIC: 16 µg/mL
Escherichia coli [3]
  MIC: 8 µg/mL
Pseudomonas aeruginosa [4]
  MIC: 8 µg/mL
Acinetobacter baumannii [5]
  MIC: 4 µg/mL
Escherichia coli [6]
  MIC: 1 µg/mL
Pseudomonas aeruginosa [7]
  fold change (FC): 2
Acinetobacter baumannii [8]
  fold change (FC): 128
Escherichia coli [9]
  fold change (FC): 8

## CCCCCCCCO[C@H]1[C@@H](N)[C@@H](CN=[N+]=[N-])O[C@H](OCc2ccc3ccccc3c2)[C@@H]1N
Pseudomonas aeruginosa [1]
  MIC: 32 µg/mL
Acinetobacter baumannii [2]
  MIC: 16 µg/mL
Escherichia coli [3]
  MIC: 8 µg/mL
Pseudomonas aeruginosa [4]
  MIC: 8 µg/mL
Acinetobacter baumannii [5]
  MIC: 4 µg/mL
Escherichia coli [6]
  MIC: 2 µg/mL
Pseudomonas aeruginosa [7]
  fold change (FC): 8
Acinetobacter baumannii [8]
  fold change (FC): >=256
Escherichia coli [9]
  fold change (FC): 64
Acinetobacter baumannii [10]
  MIC: > 128 µg/mL
Acinetobacter baumannii [11]
  MIC: 128 µg/mL (≈ 281 µM)
Escherichia coli [12]
  MIC: 128 µg/mL (≈ 281 µM)
Escherichia coli [13]
  MIC: 128 µg/mL (≈ 281 µM)
Acinetobacter baumannii [14]
  MIC: 4 µg/mL
Acinetobacter baumannii [15]
  MIC: 4 µg/mL
Escherichia coli [16]
  MIC: 2 µg/mL
Escherichia coli [17]
  MIC: 2 µg/mL
Acinetobacter baumannii [18]
  fold change (FC): 2
Acinetobacter baumannii [19]
  fold change (FC): 4
Escherichia coli [20]
  fold change (FC): 1
Escherichia coli [21]
  fold change (FC): 1
Acinetobacter baumannii [22]
  MIC: 16 µg/mL
Acinetobacter baumannii [23]
  MIC: 16 µg/mL
Escherichia coli [24]
  MIC: 16 µg/mL
Escherichia coli [25]
  MIC: 16 µg/mL
Acinetobacter baumannii [26]
  fold change (FC): 4
Acinetobacter baumannii [27]
  fold change (FC): 64
Escherichia coli [28]
  fold change (FC): 16
Escherichia coli [29]
  fold change (FC): 64
[30]
  viability at 9 µM: 31.7%
[31]
  viability at 9 µM: 46%

## CCCCCCCCCCCCO[C@@H]1O[C@H](CN)[C@H](N)[C@H](OCc2ccc3ccccc3c2)[C@H]1N
Pseudomonas aeruginosa [1]
  MIC: 8 µg/mL
Acinetobacter baumannii [2]
  MIC: 4 µg/mL
Escherichia coli [3]
  MIC: 4 µg/mL
Pseudomonas aeruginosa [4]
  MIC: 2 µg/mL
Acinetobacter baumannii [5]
  MIC: 1 µg/mL
Escherichia coli [6]
  MIC: 0.5 µg/mL
Pseudomonas aeruginosa [7]
  fold change (FC): 1
Acinetobacter baumannii [8]
  fold change (FC): 8
Escherichia coli [9]
  fold change (FC): 1

## CCCCCCO[C@@H]1O[C@H](CN)[C@H](N)[C@H](OCc2ccc3ccccc3c2)[C@H]1N
Pseudomonas aeruginosa [1]
  MIC: > 128 µg/mL
Acinetobacter baumannii [2]
  MIC: 128 µg/mL
Escherichia coli [3]
  MIC: 64 µg/mL
Pseudomonas aeruginosa [4]
  MIC: 16 µg/mL
Acinetobacter baumannii [5]
  MIC: 16 µg/mL
Escherichia coli [6]
  MIC: 16 µg/mL
Pseudomonas aeruginosa [7]
  fold change (FC): 1
Acinetobacter baumannii [8]
  fold change (FC): 32
Escherichia coli [9]
  fold change (FC): 32
